# From patent US7951964B2, “Fluorine-containing boronic acid ester compound and method for producing the same” (Unimatec Co., Ltd., priority 2008, dated 2011)
# Assay: Solubility in the fluorine-containing organic solvent 1,3-bis(trifluoromethyl)benzene (maximum amount giving a homogeneous solution, judged visually)
# Conditions: 10 ml of 1,3-bis(trifluoromethyl)benzene, 25° C., stirred, visually measured
row,Compound,"solubility in 1,3-bis(trifluoromethyl)benzene"
1,"CC1(C)OB(c2cc(B3OC(C)(C)C(C)(C)O3)cc(B3OC(C)(C)C(C)(C)O3)c2)OC1(C)C [1,3,5-tris(4,4,5,5-tetramethyl-1,3,2-dioxaborolan-2-yl)benzene]",0.20 g/10 ml solvent
2,"OB(O)c1ccc(B(O)O)cc1 [1,4-benzene diboronic acid]",insoluble
3,"CC1(C)OB(c2ccc(B3OC(C)(C)C(C)(C)O3)cc2)OC1(C)C [1,4-bis(4,4,5,5-tetramethyl-1,3,2-dioxaborolan-2-yl)benzene]",0.17 g/10 ml solvent
4,"CC1(C)OB(c2cc(OCCCC(F)(F)C(F)(F)C(F)(F)C(F)(F)C(F)(F)C(F)(F)F)cc(B3OC(C)(C)C(C)(C)O3)c2)OC1(C)C [Example, 1-(1H,1H,2H,2H,3H,3H-perfluorononane-1-yloxy)-3,5-bis-(4,4,5,5-tetramethyl-1,3,2-dioxaborolan-2-yl)benzene]",5.0 g/10 ml solvent
